This data set has as its system HeLa cells. Put plainly: Cell membrane permeability assay, evaluation by FACS. In kind it is cell-based. As to conditions: FITC-labeled peptide 0.1 μM, 37° C. Here is the method:
HeLa cells are grown in DMEM containing 10% fetal bovine serum and penicillin/streptomycin, treated with trypsin, washed twice with medium using a centrifuge, and seeded into multi-well plates for overnight incubation. FITC-labeled peptides are added to the cells at 37° C. and the cells are incubated at 37° C. The cells are washed twice with medium and twice with PBS, and treated with trypsin at 37° C. HeLa cells are collected and centrifuged, washed twice with medium and twice with PBS, and PBS containing propidium iodide is added to the cell. The cell membrane permeability of the peptides is quantitatively analyzed by FACS.
(Evaluation of Cell Membrane Permeability by FACS)
Background: Flow cytometry measures light scatter and fluorescence of single cells or particles in a stream.

Take Ac—W I F [K] H R—NH2 [WT]: the “Mean: FITC-A” value is 3192.

The values are drawn from patent publication US20230174576A1, “BETA-STRAND BRIDGE PEPTIDE” (Xeno-Interface Inc., priority 2020, published 2023).
